Laboratory results published in the supplement of paper PMC10307832.

Tests used:
Test in all cases: relative viability (nuclei count vs DMSO), 5 days (fraction); higher = more cells survive
Dactolisib + Crizotinib = compound: Cn1c(=O)n(-c2ccc(C(C)(C)C#N)cc2)c2c3cc(-c4cnc5ccccc5c4)ccc3ncc21 [Dactolisib] + C[C@@H](Oc1cc(-c2cnn(C3CCNCC3)c2)cnc1N)c1c(Cl)ccc(F)c1Cl [Crizotinib] (partner 1 µM)
How it was run: (§1)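 Relative viability was taken as the ratio of nuclei in treated wells to nuclei in vehicle wells. Lung cancer cell lines in 1536-well plates received compounds by pin tool one day after seeding, either one drug alone or a fixed anchor-drug dose plus five library-drug doses (not always all listed) in √10 steps. Nuclei were counted on 4× images after 5 days of treatment, and values are medians of duplicate plates.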

Dactolisib + Navitoclax = compound: Cn1c(=O)n(-c2ccc(C(C)(C)C#N)cc2)c2c3cc(-c4cnc5ccccc5c4)ccc3ncc21 [Dactolisib] + CC1(C)CCC(c2ccc(Cl)cc2)=C(CN2CCN(c3ccc(C(=O)NS(=O)(=O)c4ccc(N[C@H](CCN5CCOCC5)CSc5ccccc5)c(S(=O)(=O)C(F)(F)F)c4)cc3)CC2)C1 [Navitoclax] (partner 0.5 µM)
How it was run: as §1

AZ505 + Tozasertib = compound: C1CCC(CC1)N(CCNCCC2=C3C(=C(C=C2)O)NC(=O)CO3)C(=O)CCNCCC4=CC(=C(C=C4)Cl)Cl [AZ505] + Cc1cc(Nc2cc(N3CCN(C)CC3)nc(Sc3ccc(NC(=O)C4CC4)cc3)n2)n[nH]1 [Tozasertib] (partner 0.1 µM)
How it was run: as §1

Dactolisib + Pemetrexed = compound: Cn1c(=O)n(-c2ccc(C(C)(C)C#N)cc2)c2c3cc(-c4cnc5ccccc5c4)ccc3ncc21 [Dactolisib] + Nc1nc2[nH]cc(CCc3ccc(C(=O)N[C@@H](CCC(=O)O)C(=O)O)cc3)c2c(=O)[nH]1 [Pemetrexed] (partner 0.2 µM)
How it was run: as §1

Cell Line | relative viability (Dactolisib + Crizotinib; first compound 0.002 µM) | relative viability (Dactolisib + Crizotinib; first compound 0.006325 µM) | relative viability (Dactolisib + Crizotinib; first compound 0.02 µM) | relative viability (Dactolisib + Crizotinib; first compound 0.06325 µM) | relative viability (Dactolisib + Crizotinib; first compound 0.2 µM) | relative viability (Dactolisib + Navitoclax; first compound 0.002 µM) | relative viability (Dactolisib + Navitoclax; first compound 0.006325 µM) | relative viability (Dactolisib + Navitoclax; first compound 0.02 µM) | relative viability (Dactolisib + Navitoclax; first compound 0.06325 µM) | relative viability (Dactolisib + Navitoclax; first compound 0.2 µM) | relative viability (AZ505 + Tozasertib; first compound 0.08 µM) | relative viability (AZ505 + Tozasertib; first compound 0.253 µM) | relative viability (AZ505 + Tozasertib; first compound 0.8 µM) | relative viability (AZ505 + Tozasertib; first compound 2.53 µM) | relative viability (AZ505 + Tozasertib; first compound 8 µM) | relative viability (Dactolisib + Pemetrexed; first compound 0.002 µM) | relative viability (Dactolisib + Pemetrexed; first compound 0.006325 µM) | relative viability (Dactolisib + Pemetrexed; first compound 0.02 µM) | relative viability (Dactolisib + Pemetrexed; first compound 0.06325 µM) | relative viability (Dactolisib + Pemetrexed; first compound 0.2 µM)
H3255 | 0.974 | 0.813 | 0.912 | 0.556 | 0.391 | 0.724 | 0.488 | 0.426 | 0.458 | 0.176 | 0.639 | 1.17 | 0.564 | 0.503 | 0.577 | 0.568 | 0.44 | 0.558 | 0.464 | 0.474
201T | 1.03 | 1.04 | 0.998 | 0.977 | 0.913 | 1.18 | 1.22 | 1.14 | 1.17 | 0.943 | 0.896 | 1.08 | 0.905 | 0.943 | 0.875 | 0.329 | 0.295 | 0.292 | 0.272 | 0.247
NCI-H2126 | 1.07 | 1.03 | 0.98 | 0.713 | 0.537 | 0.896 | 0.77 | 0.762 | 0.564 | 0.399 | 0.816 | 0.809 | 0.821 | 0.806 | 0.892 | 0.574 | 0.717 | 0.612 | 0.471 | 0.372
HOP-62 | 1.06 | 1.01 | 0.923 | 0.505 | 0.472 | 1.24 | 1.08 | 1.06 | 0.353 | 0.613 | 0.386 | 0.436 | 0.385 | 0.427 | 0.383 | 0.305 | 0.33 | 0.341 | 0.262 | 0.25
CAL-12T | 0.624 | 0.661 | 0.425 | 0.216 | 0.215 | 1.38 | 1.17 | 0.681 | 0.264 | 0.25 | 0.298 | 0.426 | 0.308 | 0.303 | 0.302 | 1.23 | 1.17 | 1.17 | 0.412 | 0.325
NCI-H520 | 0.813 | 0.658 | 0.539 | 0.207 | 0.174 | 1.01 | 0.871 | 0.633 | 0.261 | 0.184 | 0.441 | 0.389 | 0.44 | 0.469 | 0.463 | 0.537 | 0.506 | 0.364 | 0.213 | 0.115
NCI-H1755 | 0.931 | 0.802 | 0.823 | 0.596 | 0.438 | 1.09 | 0.943 | 0.928 | 0.519 | 0.467 | 0.526 | 0.595 | 0.602 | 0.646 | 0.564 | 0.414 | 0.389 | 0.455 | 0.393 | 0.412
NCI-H2023 | 0.599 | 0.576 | 0.437 | 0.176 | 0.129 | 1.11 | 0.95 | 0.816 | 0.204 | 0.201 | 0.293 | 0.371 | 0.395 | 0.298 | 0.322 | 0.172 | 0.182 | 0.179 | 0.101 | 0.0876
NCI-H2009 | 1.01 | 1.05 | 1.02 | 0.986 | 0.566 | 1.27 | 1.12 | 1.1 | 0.692 | 0.501 | 0.714 | 0.738 | 0.805 | 0.706 | 0.64 | 1.09 | 1.07 | 1 | 0.964 | 0.498
